Reference: patent US20220202852A1, “METHODS AND COMPOSITIONS OF AQUEOUS HYPOBROMOUS ACID FOR THE TREATMENT AND PREVENTION OF INFLAMMATORY CONDITIONS” (Briotech, Inc., priority 2020, published 2022)

Experiments:
[1] = test system: human skin and mucous membranes, including conjunctiva; test: Safety of topically applied freshly prepared aqueous HOBr; format: in vivo; conditions: HOBr solution made from HOCl containing 200 ppm of Cl plus an equivalent of NaBr
Excerpt: A solution of HOBr was made by addition of an equivalent of NaBr to a solution of HOCl containing 200 ppm of Cl.

[2] = test system: spores of Bacillus subtilis; test: Inactivation of resistant spores by HOBr/HOCl solutions; format: cell-based; conditions: 20 seconds contact
Experimental: Hypobromous acid (HOBr) was prepared by the exposure of a slight excess of one equivalent of aqueous bromide ion (as NaBr) to one equivalent of HOCl. This solution was prepared fresh for use in tests for inactivation of resistant microbial organisms.
Exposures as brief as 20 seconds to HOBr at approximately 25 ppm were sufficient to produce LRV of 6. In the same experimental protocol HOC1 at 230 ppm was required to produce 6 LRV in the same contact time. As soon as the HOCl concentration used was below 230 ppm, the LRVs fell into the 2-4 range.

S. aureus = test: Comparative antimicrobial efficacy of HOBr and HOCl solutions vs suspensions; format: cell-based; conditions: 40 s exposure
Experimental: (§1) FIGS. 3A-3C compare antimicrobial efficacy comparison of HOBr and HOCl solutions: E. coli, 20 s exposure (3A); S. aureus, 40 s exposure (3B); and A. niger, 40 s exposure (3C). HOBr=diagonal lines; HOCl=stippling.
(§2) Preparations of HOCl stored at 22° C. for several weeks and freshly prepared HOBr solutions were compared in their antimicrobial properties versus suspensions of E. coli, S. aureus, and A. niger (see FIG. 3).

E. coli = test: as above; format: cell-based; conditions: 20 s exposure
Experimental: as §1, §2

A. niger = test: as above; format: cell-based; conditions: all concentrations tested, 40 s exposure
Experimental: as §1, §2

[3] = lower concentrations (<115 ppm)

SMILES | adverse effects on epithelial surfaces after topical application [1] | LRV, inactivation of Bacillus subtilis spores ([2]; approximately 25 ppm) | inactivating S. aureus, comparative efficacy (S. aureus; high concentrations (≥115 ppm)) | inactivating S. aureus, comparative efficacy (S. aureus; [3]) | inactivating E. coli, comparative efficacy (E. coli; high concentrations (≥115 ppm)) | inactivating E. coli, comparative efficacy (E. coli; [3]) | LRV, inactivation of Bacillus subtilis spores ([2]; 230 ppm) | LRV, inactivation of Bacillus subtilis spores ([2]; concentration below 230 ppm) | efficacy against A. niger, comparative (A. niger)
OBr [HOBr, Hypobromous acid] | without any indication of adverse effects | 6 | equally effective | markedly more effective than HOCl | equally effective | markedly more effective than HOCl |  |  | 
OCl [HOCl, hypochlorous acid] |  | no detectable effect | equally effective |  | equally effective |  | 6 | 2-4 | equally or more effective than HOBr
